Measurements taken from article PMC8279409, “Novel Mixed NOP/Opioid Receptor Peptide Agonists” (Journal of Medicinal Chemistry, 2021).
Read-outs that look alike come from different tables or passages of the source. Where a SMILES comes first, the peptide text is derived from it. [ ]: non-standard residue; d: D form. Phe(4-NO2) = N[C@@H](Cc1ccc([N+](=O)[O-])cc1)C(=O)O; Phe(4-F) = N[C@@H](Cc1ccc(F)cc1)C(=O)O; hPhe = N[C@@H](CCc1ccccc1)C(=O)O; Phg = N[C@H](C(=O)O)c1ccccc1; Nle = CCCC[C@H](N)C(=O)O; Dab = NCC[C@H](N)C(=O)O; Nva = CCC[C@H](N)C(=O)O; Abu = CC[C@H](N)C(=O)O; Dap = NC[C@H](N)C(=O)O

What was measured:
[1] = molecular target: T1, human mu receptor (Homo sapiens, UniProt P35372); test: Calcium mobilization, mu opioid receptor; format: cell-based; details: for mu pEC50 (CL95%): CHO cells coexpressing human mu receptor and Gαqi5, Fluo-4 AM, 37 °C, mean of at least three experiments in duplicate, CL95% in brackets; for mu Emax ± S.E.M. / activation at 10 µM / Emax: percent over the baseline fluorescence; for mu Emax ± S.E.M. / Emax: mean ± SEM of at least three experiments in duplicate; for pEC50_mu: molecular formula strings CSV, repeats calcium mobilization values of Tables 1-3; for activation at 10 µM: mean ± SEM; for activation at 10 µM / Emax: SEM
T1 construct: expressed in transfected cells; host or cells: CHO cells stably coexpressing the receptor and chimeric Gαqi5

[2] = molecular target: T2, human NOP receptor (Homo sapiens, UniProt P41146); test: Calcium mobilization, NOP receptor; format: cell-based; details: for NOP pEC50 (CL95%): CHO cells coexpressing human NOP and Gαqi5, Fluo-4 AM, 37 °C, mean of at least three experiments in duplicate, CL95% in brackets; for NOP/mu CR (concentration ratio): calcium mobilization, NOP versus mu; for Emax: mean ± SEM of at least three experiments in duplicate, SEM
T2 construct: expressed in transfected cells; host or cells: CHO cells stably coexpressing the receptor and chimeric Gαqi5
Method: CHO cells stably coexpressing the human NOP or kappa or the mu receptor and the C-terminally modified Gαqi5 and CHO cells coexpressing the delta receptor and the GαqG66Di5 protein were generated and cultured as described previously.[45],[46] Cells were maintained in Dulbecco’s modified Eagle’s medium/nutrient mixture F-12 (DEMEM/F-12) supplemented with 10% FBS, 100 U/mL penicillin and 100 μg/mL streptomycin, 100 μg/mL hygromicin B, and 200 μg/mL G418 and cultured at 37 °C in 5% CO2 humidified air. Cells were seeded at a density of 50,000 cells/well into 96-well black, clear-bottom plates. The following day, the cells were incubated with Hanks’ balanced salt solution (HBSS) supplemented with 2.5 mM probenecid, 3 μM of the calcium-sensitive fluorescent dye Fluo-4 AM, and 0.01% pluronic acid for 30 min at 37 °C. After that time, the loading solution was aspirated and 100 μL/well of HBSS supplemented with 20 mM HEPES, 2.5 mM probenecid, and 500 μM brilliant black was added. Serial dilutions were carried out in HBSS/HEPES (20 mM) buffer (containing 0.02% BSA fraction V). After placing both plates (cell culture and master plate) into the fluorometric imaging plate reader FlexStation II (Molecular Devices, Sunnyvale, CA), fluorescence changes were measured. On-line additions were carried out in a volume of 50 μL/well. To facilitate drug diffusion into the wells, the present studies were performed at 37 °C. Maximum change in fluorescence, expressed as percent over the baseline fluorescence, was used to determine agonist response.
The pharmacological terminology adopted in this paper is consistent with IUPHAR recommendations.[59] All data are expressed as the mean ± standard error of the mean (SEM) of at least three experiments performed in duplicate. […] Concentration-response curves to agonists were fitted to the classical four-parameter logistic nonlinear regression model:
Effect = Baseline + (Emax – Baseline)/(1 + 10^(LogEC50 – Log[compound]) × Hillslope). Curve fitting was performed using PRISM 6.0 (GraphPad Software Inc., San Diego).

[3] = read-out: mu effect at 10 μM (crc incomplete), Table 1 series
[4] = read-out: NOP Emax ± S.E.M., Table 1 series, maximum change in fluorescence as percent over the baseline fluorescence
[5] = read-out: mu Emax ± S.E.M, Table 1 series
[6] = read-out: mu effect at 10 μM (crc incomplete), Table 2 series
[7] = read-out: NOP Emax ± S.E.M., Table 2 series, percent over the baseline fluorescence

T1 sequence (P35372 whole entry): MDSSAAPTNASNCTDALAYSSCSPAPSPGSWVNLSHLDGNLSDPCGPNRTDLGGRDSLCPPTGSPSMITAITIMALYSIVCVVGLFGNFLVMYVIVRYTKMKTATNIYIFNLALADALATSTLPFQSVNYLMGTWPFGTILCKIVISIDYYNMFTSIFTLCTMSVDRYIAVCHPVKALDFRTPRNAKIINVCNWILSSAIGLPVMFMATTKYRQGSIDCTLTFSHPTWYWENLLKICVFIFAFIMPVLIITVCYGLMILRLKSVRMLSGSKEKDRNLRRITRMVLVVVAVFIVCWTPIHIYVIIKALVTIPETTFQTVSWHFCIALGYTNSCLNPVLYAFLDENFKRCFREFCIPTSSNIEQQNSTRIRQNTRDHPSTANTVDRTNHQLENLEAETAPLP
T2 sequence (P41146 whole entry): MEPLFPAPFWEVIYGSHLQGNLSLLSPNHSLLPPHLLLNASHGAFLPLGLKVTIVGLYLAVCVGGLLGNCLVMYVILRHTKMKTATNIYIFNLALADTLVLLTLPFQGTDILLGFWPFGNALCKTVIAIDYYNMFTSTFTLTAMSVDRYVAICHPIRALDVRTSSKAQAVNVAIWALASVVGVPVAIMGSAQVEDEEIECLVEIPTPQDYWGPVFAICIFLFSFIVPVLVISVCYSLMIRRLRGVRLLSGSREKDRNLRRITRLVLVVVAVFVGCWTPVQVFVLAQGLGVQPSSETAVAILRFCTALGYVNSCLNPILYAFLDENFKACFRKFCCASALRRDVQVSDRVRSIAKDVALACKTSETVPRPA

Row | SMILES | mu pEC50 (CL95%) ([1]; Table 1 series) | mu pEC50 (CL95%) ([1]; Table 2 series) | pEC50_mu [1] | NOP pEC50 (CL95%) ([2]; Table 1 series, FlexStation II) | NOP/mu CR (concentration ratio) ([2]; Table 1 series) | Emax [2, 4] [%] | activation at 10 µM [1, 6] [%] | Emax [2, 7] [%] | also measured
1 | C[C@H](NC(=O)CNC(=O)[C@@H](NC(=O)[C@H](Cc1ccccc1)NC(=O)CNC(=O)CNC(=O)[C@@H](N)Cc1ccccc1)[C@@H](C)O)C(=O)N[C@@H](CCCNC(=N)N)C(=O)N[C@@H](CCCCN)C(=O)N[C@@H](CO)C(=O)N[C@@H](C)C(=O)N[C@@H](CCCNC(=N)N)C(=O)N[C@@H](CCCCN)C(N)=O [Compound 1, N/OFQ(1-13)NH2, reference compound] | inactive | inactive | inactive |  |  |  |  |  | mu Emax ± S.E.M. ([1]; Table 1 series): inactive; mu Emax ± S.E.M. ([1]; Table 2 series): inactive; mu pEC50 (CL95%) ([1]; Table 3 series): inactive; mu Emax ± S.E.M. ([1]; Table 3 series): inactive
2 | CC[C@H](NC(=O)[C@H](Cc1ccccc1)NC(=O)CNC(=O)CNC(=O)[C@@H](N)Cc1ccc(O)cc1)C(=O)NCC(=O)N[C@@H](C)C(=O)N[C@@H](CCCNC(=N)N)C(=O)N[C@@H](CCCCN)C(=O)N[C@@H](CO)C(=O)N[C@@H](C)C(=O)N[C@@H](CCCNC(=N)N)C(=O)N[C@@H](CCCCN)C(N)=O [Compound 7, [Tyr^1,Abu^5]N/OFQ(1-13)-NH2] (H-YGGF[Abu]GARKSARK-NH2) | crc incomplete; 10 μM: 213 ± 37 |  | crc incomplete | 8.15 (7.61–8.69) | 0.007 | 366 ± 20 |  |  | activation at 10 µM [1, 3]: 213 ± 37%
3 | C[C@H](NC(=O)CNC(=O)[C@H](CN)NC(=O)[C@H](Cc1ccccc1)NC(=O)CNC(=O)CNC(=O)[C@@H](N)Cc1ccc(O)cc1)C(=O)N[C@@H](CCCNC(=N)N)C(=O)N[C@@H](CCCCN)C(=O)N[C@@H](CO)C(=O)N[C@@H](C)C(=O)N[C@@H](CCCNC(=N)N)C(=O)N[C@@H](CCCCN)C(N)=O [Compound 9, [Tyr^1,Dap^5]N/OFQ(1-13)-NH2] (H-YGGF[Dap]GARKSARK-NH2) | crc incomplete; 10 μM: 144 ± 44 |  | crc incomplete | 7.20 (6.95–7.45) | 0.06 | 367 ± 9 |  |  | activation at 10 µM [1, 3]: 144 ± 44%
4 | C[C@H](NC(=O)CNC(=O)[C@H](CCN)NC(=O)[C@H](Cc1ccccc1)NC(=O)CNC(=O)CNC(=O)[C@@H](N)Cc1ccc(O)cc1)C(=O)N[C@@H](CCCNC(=N)N)C(=O)N[C@@H](CCCCN)C(=O)N[C@@H](CO)C(=O)N[C@@H](C)C(=O)N[C@@H](CCCNC(=N)N)C(=O)N[C@@H](CCCCN)C(N)=O [Compound 10, [Tyr^1,Dab^5]N/OFQ(1-13)-NH2] (H-YGGF[Dab]GARKSARK-NH2) | crc incomplete; 10 μM: 41 ± 4 |  | crc incomplete | 6.43 (6.28–6.58) | 0.37 | 340 ± 22 |  |  | activation at 10 µM [1, 3]: 41 ± 4%
5 | CCCC[C@H](NC(=O)[C@H](Cc1ccccc1)NC(=O)CNC(=O)CNC(=O)[C@@H](N)Cc1ccc(O)cc1)C(=O)NCC(=O)N[C@@H](C)C(=O)N[C@@H](CCCNC(=N)N)C(=O)N[C@@H](CCCCN)C(=O)N[C@@H](CO)C(=O)N[C@@H](C)C(=O)N[C@@H](CCCNC(=N)N)C(=O)N[C@@H](CCCCN)C(N)=O [Compound 12, [Tyr^1,Nle^5]N/OFQ(1-13)-NH2] (H-YGGF[Nle]GARKSARK-NH2) | 6.74 (6.15–7.33) |  |  | 8.77 (8.45–9.09) | 0.01 | 375 ± 9 |  |  | Emax [1, 5]: 323 ± 4%
6 | CCC[C@H](NC(=O)[C@H](Cc1ccccc1)NC(=O)CNC(=O)CNC(=O)[C@@H](N)Cc1ccc(O)cc1)C(=O)NCC(=O)N[C@@H](C)C(=O)N[C@@H](CCCNC(=N)N)C(=O)N[C@@H](CCCCN)C(=O)N[C@@H](CO)C(=O)N[C@@H](C)C(=O)N[C@@H](CCCNC(=N)N)C(=O)N[C@@H](CCCCN)C(N)=O [Compound 13, [Tyr^1,Nva^5]N/OFQ(1-13)-NH2] (H-YGGF[Nva]GARKSARK-NH2) | 6.25 (5.59–6.91) |  |  | 8.43 (7.55–9.31) | 0.007 | 358 ± 14 |  |  | Emax [1, 5]: 313 ± 19%
7 | C[C@H](NC(=O)CNC(=O)[C@H](CCc1ccccc1)NC(=O)[C@H](Cc1ccccc1)NC(=O)CNC(=O)CNC(=O)[C@@H](N)Cc1ccc(O)cc1)C(=O)N[C@@H](CCCNC(=N)N)C(=O)N[C@@H](CCCCN)C(=O)N[C@@H](CO)C(=O)N[C@@H](C)C(=O)N[C@@H](CCCNC(=N)N)C(=O)N[C@@H](CCCCN)C(N)=O [Compound 18, [Tyr^1,hPhe^5]N/OFQ(1-13)-NH2] (H-YGGF[hPhe]GARKSARK-NH2) |  | crc incomplete; 10 μM: 228 ± 29 | crc incomplete |  |  |  | 228 ± 29 | 301 ± 26 | NOP pEC50 (CL95%) ([2]; Table 2 series): 8.70 (8.24–9.16); NOP/mu CR (concentration ratio) ([2]; Table 2 series): 0.003
8 | C[C@H](NC(=O)CNC(=O)[C@@H](NC(=O)[C@H](Cc1ccccc1)NC(=O)CNC(=O)CNC(=O)[C@@H](N)Cc1ccc(O)cc1)c1ccccc1)C(=O)N[C@@H](CCCNC(=N)N)C(=O)N[C@@H](CCCCN)C(=O)N[C@@H](CO)C(=O)N[C@@H](C)C(=O)N[C@@H](CCCNC(=N)N)C(=O)N[C@@H](CCCCN)C(N)=O [Compound 19, [Tyr^1,Phg^5]N/OFQ(1-13)-NH2] (H-YGGF[Phg]GARKSARK-NH2) |  | 6.81 (6.33–7.29) |  |  |  |  |  | 293 ± 31 | Emax ([1]; read-out: mu Emax ± S.E.M., Table 2 series): 287 ± 48%; NOP pEC50 (CL95%) ([2]; Table 2 series): 7.57 (7.12–8.02); NOP/mu CR (concentration ratio) ([2]; Table 2 series): 0.17
9 | COc1ccc(C[C@H](NC(=O)[C@H](Cc2ccccc2)NC(=O)CNC(=O)CNC(=O)[C@@H](N)Cc2ccc(O)cc2)C(=O)NCC(=O)N[C@@H](C)C(=O)N[C@@H](CCCNC(=N)N)C(=O)N[C@@H](CCCCN)C(=O)N[C@@H](CO)C(=O)N[C@@H](C)C(=O)N[C@@H](CCCNC(=N)N)C(=O)N[C@@H](CCCCN)C(N)=O)cc1 [Compound 20, [Tyr^1,p(OCH3)Phe^5]N/OFQ(1-13)-NH2] (H-YGGFY(Me)GARKSARK-NH2) |  | crc incomplete; 10 μM: 221 ± 49 | crc incomplete |  |  |  | 221 ± 49 | 246 ± 18 | 
10 | C[C@H](NC(=O)CNC(=O)[C@H](Cc1ccc(F)cc1)NC(=O)[C@H](Cc1ccccc1)NC(=O)CNC(=O)CNC(=O)[C@@H](N)Cc1ccc(O)cc1)C(=O)N[C@@H](CCCNC(=N)N)C(=O)N[C@@H](CCCCN)C(=O)N[C@@H](CO)C(=O)N[C@@H](C)C(=O)N[C@@H](CCCNC(=N)N)C(=O)N[C@@H](CCCCN)C(N)=O [Compound 21, [Tyr^1,(pF)Phe^5]N/OFQ(1-13)-NH2] (H-YGGF[Phe(4-F)]GARKSARK-NH2) |  | crc incomplete; 10 μM: 256 ± 55 | crc incomplete |  |  |  | 256 ± 55 | 311 ± 22 | 
11 | C[C@H](NC(=O)CNC(=O)[C@H](Cc1ccc([N+](=O)[O-])cc1)NC(=O)[C@H](Cc1ccccc1)NC(=O)CNC(=O)CNC(=O)[C@@H](N)Cc1ccc(O)cc1)C(=O)N[C@@H](CCCNC(=N)N)C(=O)N[C@@H](CCCCN)C(=O)N[C@@H](CO)C(=O)N[C@@H](C)C(=O)N[C@@H](CCCNC(=N)N)C(=O)N[C@@H](CCCCN)C(N)=O [Compound 22, [Tyr^1,(pNO2)Phe^5]N/OFQ(1-13)-NH2] (H-YGGF[Phe(4-NO2)]GARKSARK-NH2) |  | crc incomplete; 10 μM: 192 ± 64 | crc incomplete |  |  |  | 192 ± 64 | 305 ± 22 | 
